Data: patent publication US11746085B2, “Triphenylsulfonium salt compound, and uses thereof” (Changzhou Tronly Advanced Electronic Materials Co., Ltd., priority 2018, dated 2023)

Experiment: Dissolution performance test: solubility in 3-ethyl-3-hydroxymethyl oxetane monomer
Type: physicochemical
Conditions: maximum number of grams dissolved in 100 g 3-ethyl-3-hydroxymethyl oxetane monomer at 20° C.
Method: The solubility in 3-ethyl-3-hydroxymethyl oxetane monomer was tested for Compound A-1 to A-38 and C-1 to C-25, and comparative compounds B-1 and B-2 as well as D-1 and D-2 in the present invention, calculated based on the maximum number of grams dissolved in 100 g solvent at 20° C.

SMILES	Solubility (Table 4) [g]	Solubility (Table 3) [g]
Cc1ccc([SH](c2ccc(C)c(F)c2)c2ccc(C)c(F)c2)cc1F [Compound A-10]		23.8
Cc1ccc([S+](c2ccc(C)c(F)c2)c2ccc3c(c2)Cc2ccccc2-3)cc1F [Compound A-22]		22.3
Cc1ccc([SH](c2ccc(Sc3ccc(C(=O)c4ccccc4)cc3)cc2)c2ccc(C)c(F)c2)cc1F [Compound A-30]		27.8
Cc1ccc([S+](c2ccccc2)c2ccccc2)cc1C(F)(F)F [Compound A-6]		19.2
COc1ccc([S+](c2ccc(C(C)=O)cc2)c2ccc(C(C)=O)cc2)cc1F [Compound A-8]		23.4
COc1ccc([S+](c2ccc(Sc3ccccc3)cc2)c2ccc(OC)c(F)c2)cc1F [Compound A-35]		24.8
CCn1c2cc([SH](c3ccc(C)c(C(F)(F)F)c3)c3ccc(C)c(C(F)(F)F)c3)ccc2c2ccc([SH](c3ccc(C)c(C(F)(F)F)c3)c3ccc(C)c(C(F)(F)F)c3)cc21 [Compound C-25]	22.8	
Cc1ccc([S+](c2ccc(Sc3ccc([S+](c4ccc(C)c([N+](=O)[O-])c4)c4ccc(C)c([N+](=O)[O-])c4)cc3)cc2)c2ccc(C)c([N+](=O)[O-])c2)cc1[N+](=O)[O-] [Compound C-3]	23.4	
Cc1ccc([S+](c2ccc(Cc3ccc([S+](c4ccc(C)c([N+](=O)[O-])c4)c4ccc(C)c([N+](=O)[O-])c4)cc3)cc2)c2ccc(C)c([N+](=O)[O-])c2)cc1[N+](=O)[O-] [Compound C-9]	23.1	
Fc1cccc([S+](c2ccccc2)c2ccccc2)c1 [Compound B-1, reference compound]		12.1
Cc1ccc([S+](c2ccc(OCCO)cc2)c2ccc(C)c(F)c2)cc1F [Compound A-9]		24.3
Fc1ccc([S+](c2ccccc2)c2ccccc2)cc1F [Compound A-5]		19.1
Cc1ccc([S+](c2ccc(C)c(C#N)c2)c2ccc(C)c(C#N)c2)cc1C [Compound A-18]		23.2
COc1ccc([S+](c2ccc(C)c(F)c2)c2ccc(C)c(F)c2)cc1 [Compound A-1]		25.7
Cc1ccc([S+](c2ccccc2)c2ccc(/C=C/c3ccccc3)cc2)cc1F (stereo not shown) [Compound A-38]		23.5
Fc1ccc([S+](c2ccccc2)c2ccc(Sc3ccccc3)cc2)cc1F (stereo not shown) [Compound A-20]		19.8

SMILES	Solubility (Table 4) [g]	Solubility (Table 3) [g]
Cc1ccc([SH](c2ccc(C)c(F)c2)c2ccc3c(c2)oc2cc([SH](c4ccc(C)c(F)c4)c4ccc(C)c(F)c4)ccc23)cc1F [Compound C-23]	23.6	
Cc1ccc([S+](c2ccc(/C=C/c3ccccc3)cc2)c2ccc(C)c(F)c2)cc1F [Compound A-37]		22.4
Cc1ccc([S+](c2ccc(C)c(F)c2)c2ccc(C)c(F)c2)cc1 [Compound A-11]		21.6
Cc1ccc(-[s+]2c3ccccc3c(=O)c3cc(C(C)C)ccc32)cc1F (stereo not shown) [Compound A-2]		23.5
Cc1ccc([S+](c2ccc(C)c(F)c2)c2ccc(C)c(F)c2)cc1 [Compound A-3]		22.5
CCc1ccc([S+](c2ccc(OCCO)cc2)c2ccc(CC)c([N+](=O)[O-])c2)cc1[N+](=O)[O-] [Compound A-32]		28.2
CC(=O)c1ccc([S+](c2ccccc2)c2ccc(C)c(C#N)c2)cc1 (stereo not shown) [Compound A-7]		20.6
Cc1ccc([S+](c2ccc(Sc3ccccc3)cc2)c2ccc(C)c(C(=O)Cl)c2)cc1C(=O)Cl [Compound A-19]		24.3
Cc1ccc([S+](c2ccc(Sc3ccccc3)cc2)c2ccc(C)c([N+](=O)[O-])c2)cc1[N+](=O)[O-] [Compound A-27]		22.3
Cc1ccc([S+](c2ccccc2)c2ccccc2)cc1 [Compound B-2, reference compound]		20.6
CC(=O)c1cc([SH](c2ccc(Sc3ccccc3)cc2)c2ccc(C)c(C(C)=O)c2)ccc1C [Compound A-16]		22.6
Cc1ccc([S+](c2ccccc2)c2ccccc2)cc1F [Compound A-4]		19.5
CCc1ccc([S+](c2ccc(OC)cc2)c2ccc(CC)c(C(F)(F)F)c2)cc1C(F)(F)F [Compound A-31]		27.6
CCc1ccc([S+](c2ccc(OC)cc2)c2ccc(CC)c(F)c2)cc1F [Compound A-28]		26.4
Cc1ccc([S+](c2ccc(C)c(F)c2)c2ccc3oc4ccccc4c3c2)cc1F [Compound A-24]		23.1

Other lines, results leading:

Solubility (Table 4) [g]	Solubility (Table 3) [g]	SMILES
24.5		CCCCC1(CCCC)c2cc([S+](c3ccc(C)c(F)c3)c3ccc(C)c(F)c3)ccc2-c2ccc([S+](c3ccc(C)c(F)c3)c3ccc(C)c(F)c3)cc21 [Compound C-22]
23.1		Cc1ccc([S+](c2ccc(Sc3ccc([S+](c4ccc(C)c(C#N)c4)c4ccc(C)c(C#N)c4)cc3)cc2)c2ccc(C)c(C#N)c2)cc1C#N [Compound C-4]
23.4		Cc1ccc([S+](c2ccc(C)c(F)c2)c2ccc3c(c2)Cc2cc([S+](c4ccc(C)c(F)c4)c4ccc(C)c(F)c4)ccc2-3)cc1F [Compound C-21]
19.3		Cc1ccc([S+](c2ccccc2)c2ccc(Sc3ccc([S+](c4ccccc4)c4ccc(C)cc4)cc3)cc2)cc1 [Compound D-2, reference compound]
21.5		Cc1ccc([S+](c2ccccc2)c2ccc(Sc3ccc([S+](c4ccccc4)c4ccc(C)c(F)c4)cc3)cc2)cc1F (stereo not shown) [Compound C-17]
24.9		Cc1ccc([S+](c2ccc(Sc3ccc([S+](c4ccc(C)c(C#N)c4)c4ccc(C)c(C#N)c4)cc3C)c(C)c2)c2ccc(C)c(C#N)c2)cc1C#N [Compound C-13]
24.4		Cc1ccc([S+](c2ccc(Sc3ccc([S+](c4ccc(C)c(F)c4)c4ccc(C)c(F)c4)cc3)cc2)c2ccc(C)c(F)c2)cc1F [Compound C-1]
25.3		Cc1ccc([S+](c2ccc(Sc3ccc([S+](c4ccc(C)c(F)c4)c4ccc(C)c(F)c4)cc3C)c(C)c2)c2ccc(C)c(F)c2)cc1F [Compound C-12]
21.0		Cc1ccc([S+](c2ccc(-c3ccc([S+](c4ccc(C)c(C#N)c4)c4ccc(C)c(C#N)c4)cc3)cc2)c2ccc(C)c(C#N)c2)cc1C#N [Compound C-11]
	20.1	Cc1ccc([S+](c2ccccc2)c2ccc(-c3ccccc3)cc2)cc1F (stereo not shown) [Compound A-21]
25.1		CCc1ccc([S+](c2ccc(Sc3ccc([S+](c4ccc(CC)c(F)c4)c4ccc(CC)c(F)c4)cc3)cc2)c2ccc(CC)c(F)c2)cc1F [Compound C-5]
20.7		COc1ccc([S+](c2ccccc2)c2ccc(Sc3ccc([S+](c4ccccc4)c4ccc(OC)c(F)c4)cc3)cc2)cc1F (stereo not shown) [Compound C-18]
24.8		CC(C)c1ccc([S+](c2ccc(-c3ccc([S+](c4ccc(C(C)C)c(F)c4)c4ccc(C(C)C)c(F)c4)cc3)cc2)c2ccc(C(C)C)c(F)c2)cc1F [Compound C-19]
24.4		Fc1cc([S+](c2ccc(Sc3ccc([S+](c4ccc(Cc5ccccc5)c(F)c4)c4ccc(Cc5ccccc5)c(F)c4)cc3)cc2)c2ccc(Cc3ccccc3)c(F)c2)ccc1Cc1ccccc1 [Compound C-16]
24.3		Cc1ccc([S+](c2ccc(Sc3ccc([S+](c4ccc(C)c(C(F)(F)F)c4)c4ccc(C)c(C(F)(F)F)c4)cc3)cc2)c2ccc(C)c(C(F)(F)F)c2)cc1C(F)(F)F [Compound C-2]
23.5		Cc1ccc([S+](c2ccc(C)c(F)c2)c2ccc3c(c2)sc2cc([S+](c4ccc(C)c(F)c4)c4ccc(C)c(F)c4)ccc23)cc1F [Compound C-24]
22.1		Cc1ccc([S+](c2ccccc2)c2ccc(Sc3ccc([S+](c4ccccc4)c4ccc(C)c(C(F)(F)F)c4)cc3)cc2)cc1C(F)(F)F (stereo not shown) [Compound C-20]
	24.5	Cc1ccc([S+](c2ccc(Sc3ccccc3)cc2)c2ccc(C)c(F)c2)cc1F [Compound A-12]
21.4		Cc1ccc([S+](c2ccc(-c3ccc([S+](c4ccc(C)c(F)c4)c4ccc(C)c(F)c4)cc3)cc2)c2ccc(C)c(F)c2)cc1F [Compound C-10]
25.3		CCc1ccc([S+](c2ccc(Sc3ccc([S+](c4ccc(CC)c(C(F)(F)F)c4)c4ccc(CC)c(C(F)(F)F)c4)cc3)cc2)c2ccc(CC)c(C(F)(F)F)c2)cc1C(F)(F)F [Compound C-6]
	23.4	Cc1ccc([S+](c2ccc(-c3ccccc3)cc2)c2ccc(C)c(F)c2)cc1F [Compound A-15]
	23.2	Fc1cc([S+](c2ccc(Sc3ccccc3)cc2)c2ccc(Cc3ccccc3)c(F)c2)ccc1Cc1ccccc1 [Compound A-36]
	23.8	Cc1ccc([S+](c2ccc(Oc3ccccc3)cc2)c2ccc(C)c(F)c2)cc1F [Compound A-13]
23.7		Cc1ccc([S+](c2ccc(Oc3ccc([S+](c4ccc(C)c(F)c4)c4ccc(C)c(F)c4)cc3)cc2)c2ccc(C)c(F)c2)cc1F [Compound C-8]
11.5		Fc1cccc([S+](c2ccccc2)c2ccc(Sc3ccc([S+](c4ccccc4)c4cccc(F)c4)cc3)cc2)c1 [Compound D-1, reference compound]
	23.5	Cc1ccc([S+](c2ccc(Cc3ccccc3)cc2)c2ccc(C)c(F)c2)cc1F [Compound A-14]
22.4		Cc1ccc([S+](c2ccc(/C=C/c3ccc([S+](c4ccc(C)c(F)c4)c4ccc(C)c(F)c4)cc3)cc2)c2ccc(C)c(F)c2)cc1F [Compound C-7]
